This note sets out measurements from ChEMBL document CHEMBL5465560, “Selectivity Literature for EUbOPEN Chemogenomic Library” (2024).

SMILES strings stand for the structures.

For assay [1], the target named is Tyrosine-protein kinase receptor UFO (Homo sapiens) (UniProt P30530). The assay can be described thus: Selectivity interaction (Kinase panel (Z-LYTE Assay)) EUB0001632a AXL. The note with it: at 10 µM.
Assay [2] addresses T1, Serine/threonine-protein kinase Nek1 (Homo sapiens) (UniProt Q96PY6).
T1 sequence (whole entry): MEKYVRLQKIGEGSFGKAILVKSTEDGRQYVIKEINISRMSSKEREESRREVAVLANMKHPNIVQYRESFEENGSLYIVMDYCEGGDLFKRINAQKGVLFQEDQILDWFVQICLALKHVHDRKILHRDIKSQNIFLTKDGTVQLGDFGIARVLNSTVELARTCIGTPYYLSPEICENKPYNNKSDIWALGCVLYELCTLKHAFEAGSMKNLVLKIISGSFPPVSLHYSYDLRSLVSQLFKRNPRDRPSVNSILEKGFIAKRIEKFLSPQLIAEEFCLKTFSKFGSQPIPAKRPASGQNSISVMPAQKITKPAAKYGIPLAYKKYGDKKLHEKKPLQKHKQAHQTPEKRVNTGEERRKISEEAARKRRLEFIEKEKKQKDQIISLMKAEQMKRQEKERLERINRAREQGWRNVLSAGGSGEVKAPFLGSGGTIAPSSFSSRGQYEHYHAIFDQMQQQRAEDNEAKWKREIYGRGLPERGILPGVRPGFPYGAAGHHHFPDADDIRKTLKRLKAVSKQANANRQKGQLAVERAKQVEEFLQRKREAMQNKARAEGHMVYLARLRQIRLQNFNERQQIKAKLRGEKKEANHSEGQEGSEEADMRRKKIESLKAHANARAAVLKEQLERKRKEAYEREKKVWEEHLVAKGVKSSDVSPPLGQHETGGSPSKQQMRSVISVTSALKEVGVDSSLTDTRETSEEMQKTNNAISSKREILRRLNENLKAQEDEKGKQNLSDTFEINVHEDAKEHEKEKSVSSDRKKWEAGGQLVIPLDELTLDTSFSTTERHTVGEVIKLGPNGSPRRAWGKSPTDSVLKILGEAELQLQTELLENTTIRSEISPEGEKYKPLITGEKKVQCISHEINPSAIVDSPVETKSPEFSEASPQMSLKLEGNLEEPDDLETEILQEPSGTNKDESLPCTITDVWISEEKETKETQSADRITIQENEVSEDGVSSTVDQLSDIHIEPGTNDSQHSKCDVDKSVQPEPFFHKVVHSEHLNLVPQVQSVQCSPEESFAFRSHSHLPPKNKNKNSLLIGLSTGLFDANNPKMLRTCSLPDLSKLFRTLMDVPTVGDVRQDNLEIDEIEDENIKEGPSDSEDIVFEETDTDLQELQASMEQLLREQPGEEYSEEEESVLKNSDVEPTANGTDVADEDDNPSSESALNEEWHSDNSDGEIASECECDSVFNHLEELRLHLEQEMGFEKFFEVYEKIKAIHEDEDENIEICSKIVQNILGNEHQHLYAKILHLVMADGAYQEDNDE
The assay can be described thus: Selectivity interaction (Kinase panel (Eurofins)) EUB0001564a NEK1. As to conditions: at 1 µM.

The target in assay [3] is Serine/threonine-protein kinase PAK 4 (Homo sapiens, UniProt O96013). As to conditions: at 10 µM.
Sequence of Serine/threonine-protein kinase PAK 4 (O96013 whole entry, looked up): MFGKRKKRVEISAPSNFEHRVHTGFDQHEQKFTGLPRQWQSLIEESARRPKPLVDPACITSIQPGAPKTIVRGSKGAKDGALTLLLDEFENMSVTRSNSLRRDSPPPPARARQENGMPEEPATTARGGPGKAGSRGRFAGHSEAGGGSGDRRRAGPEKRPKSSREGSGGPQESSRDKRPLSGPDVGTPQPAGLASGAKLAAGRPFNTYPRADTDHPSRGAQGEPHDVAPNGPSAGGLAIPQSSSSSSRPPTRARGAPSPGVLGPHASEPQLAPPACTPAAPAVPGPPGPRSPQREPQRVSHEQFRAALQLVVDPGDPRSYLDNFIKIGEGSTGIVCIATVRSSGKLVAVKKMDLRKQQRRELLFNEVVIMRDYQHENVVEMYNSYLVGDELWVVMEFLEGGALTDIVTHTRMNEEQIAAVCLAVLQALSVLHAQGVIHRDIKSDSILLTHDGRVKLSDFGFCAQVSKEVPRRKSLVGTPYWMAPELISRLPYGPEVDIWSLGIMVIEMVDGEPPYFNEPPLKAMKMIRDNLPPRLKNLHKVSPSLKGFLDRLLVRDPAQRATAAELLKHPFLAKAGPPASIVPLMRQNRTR
In assay [4] the target is Hepatocyte growth factor-like protein (Homo sapiens) (UniProt P26927). As to conditions: at 10 µM.
Assay [5] deals with 3',5'-cyclic-AMP phosphodiesterase 4A (Homo sapiens, UniProt P27815). Kind of assay: Selectivity interaction (Enzyme panel (AstraZeneca, AlphaScreen, functional assay)) EUB0000621a PDE4A. For orientation: Alpha assays give light when donor and acceptor beads are brought close together.
Sequence of 3',5'-cyclic-AMP phosphodiesterase 4A (P27815 whole entry): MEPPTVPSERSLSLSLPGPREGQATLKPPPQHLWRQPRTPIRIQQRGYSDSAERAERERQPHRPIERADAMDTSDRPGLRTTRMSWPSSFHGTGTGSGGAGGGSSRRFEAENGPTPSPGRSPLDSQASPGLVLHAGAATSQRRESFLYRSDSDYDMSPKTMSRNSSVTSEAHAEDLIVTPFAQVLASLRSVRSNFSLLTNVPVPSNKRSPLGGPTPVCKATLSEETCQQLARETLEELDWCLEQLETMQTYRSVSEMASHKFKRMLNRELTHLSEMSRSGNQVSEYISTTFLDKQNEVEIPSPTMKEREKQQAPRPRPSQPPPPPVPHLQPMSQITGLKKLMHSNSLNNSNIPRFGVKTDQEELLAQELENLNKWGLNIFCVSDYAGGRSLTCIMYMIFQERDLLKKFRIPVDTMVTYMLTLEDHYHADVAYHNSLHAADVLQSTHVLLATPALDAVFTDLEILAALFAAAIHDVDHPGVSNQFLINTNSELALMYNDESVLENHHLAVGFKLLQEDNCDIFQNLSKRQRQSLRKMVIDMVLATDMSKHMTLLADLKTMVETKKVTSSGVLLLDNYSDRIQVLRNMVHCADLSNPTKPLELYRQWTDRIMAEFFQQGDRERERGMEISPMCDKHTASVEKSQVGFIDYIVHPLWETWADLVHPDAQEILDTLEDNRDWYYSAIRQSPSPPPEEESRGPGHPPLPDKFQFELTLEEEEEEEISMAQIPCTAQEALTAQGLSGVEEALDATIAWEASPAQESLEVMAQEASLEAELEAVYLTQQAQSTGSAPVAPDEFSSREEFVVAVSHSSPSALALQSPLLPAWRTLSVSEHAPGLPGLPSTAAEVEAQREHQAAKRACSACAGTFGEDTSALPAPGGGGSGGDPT
Assay [6] concerns the target [Pyruvate dehydrogenase (acetyl-transferring)] kinase isozyme 1, mitochondrial (Homo sapiens, UniProt Q15118). The assay can be described thus: Selectivity interaction (Kinase panel (Invitrogen)) EUB0000639a PDK1. The note with it: at 200 nM.
Assay [7] addresses T2, Cyclin-G-associated kinase (Homo sapiens) (UniProt O14976).
T2 sequence (whole entry): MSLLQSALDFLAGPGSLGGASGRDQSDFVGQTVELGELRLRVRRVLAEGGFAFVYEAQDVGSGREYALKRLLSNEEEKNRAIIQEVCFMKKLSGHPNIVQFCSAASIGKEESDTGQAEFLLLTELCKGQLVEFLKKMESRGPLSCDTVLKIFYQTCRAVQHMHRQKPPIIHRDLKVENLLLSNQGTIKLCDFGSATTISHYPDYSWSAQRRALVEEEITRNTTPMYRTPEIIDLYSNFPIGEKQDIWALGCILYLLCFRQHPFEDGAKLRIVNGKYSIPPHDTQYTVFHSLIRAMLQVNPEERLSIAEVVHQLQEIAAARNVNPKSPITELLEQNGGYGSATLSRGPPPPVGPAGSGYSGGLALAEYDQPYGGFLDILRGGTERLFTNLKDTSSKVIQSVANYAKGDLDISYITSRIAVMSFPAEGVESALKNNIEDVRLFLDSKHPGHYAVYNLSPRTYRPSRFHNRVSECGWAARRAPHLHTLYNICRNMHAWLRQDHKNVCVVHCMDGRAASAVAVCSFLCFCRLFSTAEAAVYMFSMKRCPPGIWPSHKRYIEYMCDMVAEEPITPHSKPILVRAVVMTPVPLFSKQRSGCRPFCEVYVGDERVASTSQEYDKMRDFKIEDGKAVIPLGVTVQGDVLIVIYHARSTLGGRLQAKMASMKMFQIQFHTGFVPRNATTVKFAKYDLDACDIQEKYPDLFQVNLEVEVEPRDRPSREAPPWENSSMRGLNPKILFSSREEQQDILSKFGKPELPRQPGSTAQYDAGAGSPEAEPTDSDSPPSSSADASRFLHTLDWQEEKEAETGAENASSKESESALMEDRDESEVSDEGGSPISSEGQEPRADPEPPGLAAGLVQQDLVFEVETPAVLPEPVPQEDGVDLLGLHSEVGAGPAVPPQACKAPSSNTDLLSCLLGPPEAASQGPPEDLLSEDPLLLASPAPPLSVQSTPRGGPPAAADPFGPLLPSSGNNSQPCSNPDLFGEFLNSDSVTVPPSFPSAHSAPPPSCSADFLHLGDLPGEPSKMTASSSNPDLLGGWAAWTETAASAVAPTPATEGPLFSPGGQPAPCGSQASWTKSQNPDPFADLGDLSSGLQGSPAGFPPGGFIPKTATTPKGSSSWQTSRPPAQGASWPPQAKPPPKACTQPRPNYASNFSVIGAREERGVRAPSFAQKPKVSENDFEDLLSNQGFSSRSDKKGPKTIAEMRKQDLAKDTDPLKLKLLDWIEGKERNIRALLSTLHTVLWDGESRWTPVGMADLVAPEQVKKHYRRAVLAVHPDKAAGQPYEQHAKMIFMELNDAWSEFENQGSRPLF
The assay can be described thus: Selectivity interaction (Kinase panel (DSF assay)) EUB0001558a GAK. (DSF heats the sample and reads unfolding from a dye or from intrinsic fluorescence.)

The target in assay [8] is RAC-beta serine/threonine-protein kinase (Homo sapiens) (UniProt P31751). The assay can be described thus: Selectivity interaction (Kinase panel (KiNativ target engagement assay in Jurkat cells)) EUB0001635a AKT2. The assay is classed as cell-based. As to conditions: at 1 µM.
Sequence of RAC-beta serine/threonine-protein kinase (Homo sapiens) (P31751 whole entry): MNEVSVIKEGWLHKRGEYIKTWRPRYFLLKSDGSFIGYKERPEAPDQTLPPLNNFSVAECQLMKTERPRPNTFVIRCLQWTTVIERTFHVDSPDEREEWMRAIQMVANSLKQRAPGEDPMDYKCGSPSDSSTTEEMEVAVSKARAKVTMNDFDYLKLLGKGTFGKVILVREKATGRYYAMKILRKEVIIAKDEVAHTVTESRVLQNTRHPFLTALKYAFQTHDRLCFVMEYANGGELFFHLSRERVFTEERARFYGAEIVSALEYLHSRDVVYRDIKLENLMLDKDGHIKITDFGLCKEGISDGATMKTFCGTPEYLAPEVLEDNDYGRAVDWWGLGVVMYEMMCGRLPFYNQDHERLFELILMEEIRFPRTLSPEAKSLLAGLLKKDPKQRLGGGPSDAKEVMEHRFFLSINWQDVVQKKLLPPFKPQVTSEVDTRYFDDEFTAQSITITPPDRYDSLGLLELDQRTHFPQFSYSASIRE

Sequence of Tyrosine-protein kinase receptor UFO (Homo sapiens) (P30530 whole entry): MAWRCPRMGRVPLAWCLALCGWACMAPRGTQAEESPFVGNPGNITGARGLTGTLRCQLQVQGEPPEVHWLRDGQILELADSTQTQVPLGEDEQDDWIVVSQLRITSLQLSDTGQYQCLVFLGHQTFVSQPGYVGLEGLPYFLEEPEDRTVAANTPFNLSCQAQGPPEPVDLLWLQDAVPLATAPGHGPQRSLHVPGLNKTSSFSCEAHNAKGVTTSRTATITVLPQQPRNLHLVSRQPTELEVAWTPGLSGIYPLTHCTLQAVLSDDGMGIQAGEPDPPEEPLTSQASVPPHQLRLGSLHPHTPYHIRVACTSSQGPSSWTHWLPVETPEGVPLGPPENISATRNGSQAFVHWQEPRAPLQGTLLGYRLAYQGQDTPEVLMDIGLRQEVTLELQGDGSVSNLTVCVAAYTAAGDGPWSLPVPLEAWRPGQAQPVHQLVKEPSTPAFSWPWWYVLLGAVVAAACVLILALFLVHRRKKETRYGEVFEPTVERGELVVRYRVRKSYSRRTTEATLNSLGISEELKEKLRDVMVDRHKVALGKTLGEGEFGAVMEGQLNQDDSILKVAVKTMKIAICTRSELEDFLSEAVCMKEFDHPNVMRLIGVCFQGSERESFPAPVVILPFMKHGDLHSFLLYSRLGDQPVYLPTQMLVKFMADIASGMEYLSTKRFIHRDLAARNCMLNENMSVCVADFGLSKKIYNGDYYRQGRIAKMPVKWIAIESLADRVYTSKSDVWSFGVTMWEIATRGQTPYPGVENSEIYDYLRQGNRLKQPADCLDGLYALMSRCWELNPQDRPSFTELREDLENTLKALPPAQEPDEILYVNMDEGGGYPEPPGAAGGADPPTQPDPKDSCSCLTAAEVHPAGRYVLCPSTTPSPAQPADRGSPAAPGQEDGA

Take `Cn1cc(-n2cnc3c(NCc4nc5cc(Cl)c(Cl)cc5[nH]4)nc(N4CCOCC4)nc32)cn1`: the % of control in assay [1] was found to be 2.06%.

Take `CC[C@@H](Nc1c(C#N)c(-c2ccc(-c3cccc(C)c3F)cc2)nc2cnccc12)C(=O)O` [BAY-091]: the % of inhibition in assay [2] turned out to be 24.4%.

On to `CCN(CC)CCCCNc1ncc2cc(-c3cc(OC)cc(OC)c3)c(NC(=O)NC(C)(C)C)nc2n1`, for which the % of control in assay [3] came to 100%.

In assay [4], `Cc1cc([C@@H](C)Nc2ccccc2C(=O)O)c2nc(N3CCOCC3)cc(=O)n2c1` [AZD-6482] gave a % of control of 95%. Further, in assay [5], the midpoint of inhibition, the IC50, lay at 17 µM.

In assay [6], `CC[C@@H]1[C@H](F)C(=O)N[C@@H]1COc1nccc2cc(C(N)=O)c(OC)cc12` [ZIMLOVISERTIB] had a % of inhibition of 15.8%.

The molecule `CC(C)(O)[C@H](F)CN1Cc2cc(NC(=O)c3cnn4cccnc34)c(N3CCOCC3)cc2C1=O` showed a dTM in assay [7] of 2.3 K.

Consider `C=CC(=O)Nc1ccc(C(=O)Nc2[nH]nc3c2CN(C(=O)N[C@H](CN(C)C)c2ccccc2)C3(C)C)cc1`, for which the % of engagement in assay [8] is -11.1%.
